From PubChem BioAssay (NCI)
Several values for one entry are separate records, joined by “and”; a condition that tells them apart may be missing. Identical values can stand only once.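 In this assay, cells in 96-well plates receive the compound at five concentrations for 48 hours. Endpoints are linearly interpolated between the surrounding concentrations. The concentration for 50% growth inhibition is given as GI50. At the TGI there is no net growth.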 Peptide text beside a SMILES is read from it. * marks the point of attachment. Boc = CC(C)(C)OC(=O)*

Experiments:
Assay in all cases: NCI tumour cell line growth inhibition, 48 h
OVCAR-3 ovarian = tested on: OVCAR-3 ovarian
RPMI-8226 leukemia = tested on: RPMI-8226 leukemia
KM12 colon = tested on: KM12 colon
NCI-H23 lung = tested on: NCI-H23 lung
HOP-92 NSCLC = tested on: HOP-92 NSCLC
K-562 leukemia = tested on: K-562 leukemia
SW-620 colon = tested on: SW-620 colon
MDA-N = tested on: MDA-N
SK-MEL-28 melanoma = tested on: SK-MEL-28 melanoma
SNB-75 CNS = tested on: SNB-75 CNS

SMILES: C[C@@H](C[C@@H](O)[C@H](O)C(C)(C)O)[C@H]1CC=C2[C@]3(C)[C@H](O)C[C@H]4C(C)(C)[C@H](O)CC[C@]4(C)[C@H]3CC[C@@]21C
- TGI (OVCAR-3 ovarian): 26.2 µM
- TGI (RPMI-8226 leukemia): 48.2 µM
- TGI (KM12 colon): 32.8 µM
- TGI (NCI-H23 lung): 33.6 µM
- TGI (HOP-92 NSCLC): 27.1 µM
- TGI (K-562 leukemia): 41.7 µM
- TGI (SW-620 colon): 32.3 µM
- TGI (MDA-N): 29.5 µM
- TGI (SK-MEL-28 melanoma): 28.5 µM
- TGI (SNB-75 CNS): 39.1 µM

SMILES: CN1C(=O)[C@@]2(C=CC3(CC2)OCCO3)c2ccccc21
- TGI (OVCAR-3 ovarian): > 50 µM
- TGI (RPMI-8226 leukemia): > 50 µM
- TGI (KM12 colon): > 50 µM
- TGI (NCI-H23 lung): > 50 µM
- TGI (HOP-92 NSCLC): > 50 µM
- TGI (K-562 leukemia): > 50 µM
- TGI (SW-620 colon): > 50 µM
- TGI (MDA-N): > 50 µM
- TGI (SK-MEL-28 melanoma): > 50 µM
- TGI (SNB-75 CNS): 49.5 µM

SMILES: O=C(Nc1ccccc1)N1N=C(c2ccccc2)C1c1ccccc1 (configuration not stated)
- TGI (OVCAR-3 ovarian): 42.1 µM
- TGI (RPMI-8226 leukemia): 30.6 µM
- TGI (KM12 colon): > 100 µM
- TGI (NCI-H23 lung): 72.1 µM
- TGI (HOP-92 NSCLC): 91.9 µM
- TGI (SW-620 colon): > 100 µM
- TGI (MDA-N): 70.7 µM
- TGI (SK-MEL-28 melanoma): > 100 µM
- TGI (SNB-75 CNS): 32 µM

SMILES: CSCCC(NC(=O)C(CC(C)C)NC(=O)CNC(=O)OC(C)(C)C)C(=O)N(C)C (stereo not drawn) (Boc-Gly-Leu-Met-NMe2; configuration not given here)
- TGI (KM12 colon): > 100 µM
- TGI (NCI-H23 lung): > 100 µM
- TGI (HOP-92 NSCLC): > 100 µM
- TGI (K-562 leukemia): > 100 µM
- TGI (SW-620 colon): > 100 µM
- TGI (MDA-N): > 100 µM
- TGI (SK-MEL-28 melanoma): > 100 µM

SMILES: Cc1ccc(S(=O)(=O)NC(=O)NS(=O)(=O)O)cc1
- TGI (RPMI-8226 leukemia): > 100 µM
- TGI (KM12 colon): > 100 µM
- TGI (NCI-H23 lung): > 100 µM
- TGI (HOP-92 NSCLC): > 100 µM
- TGI (K-562 leukemia): > 100 µM
- TGI (SW-620 colon): > 100 µM
- TGI (MDA-N): > 100 µM
- TGI (SK-MEL-28 melanoma): > 100 µM
- TGI (SNB-75 CNS): > 100 µM

SMILES: CC(=O)c1c(O)c(C)c(O)c2c1OC1=CC(=O)C(C(C)=O)C(=O)C12C (configuration not stated)
- GI50 (OVCAR-3 ovarian): 1.05 µM and 5.74 µM
- TGI (OVCAR-3 ovarian): 3.72 µM and 15.5 µM
- GI50 (RPMI-8226 leukemia): 3.88 µM and 9.02 µM
- TGI (RPMI-8226 leukemia): 24.2 µM and 49.7 µM
- GI50 (KM12 colon): 6.21 µM and 19 µM
- TGI (KM12 colon): 32.2 µM and 63.5 µM
- GI50 (NCI-H23 lung): 6.72 µM and 18.7 µM
- TGI (NCI-H23 lung): 26.6 µM and 49.6 µM
- GI50 (HOP-92 NSCLC): 5.38 µM and 18.7 µM
- TGI (HOP-92 NSCLC): 9.69 µM and 57.1 µM
- GI50 (K-562 leukemia): 4.62 µM and 23 µM
- TGI (K-562 leukemia): 24.3 µM and 84.8 µM
- GI50 (SW-620 colon): 6.44 µM and 27.5 µM
- TGI (SW-620 colon): 41.3 µM and 86 µM
- TGI (SK-MEL-28 melanoma): 40.9 µM and 22 µM
- GI50 (SNB-75 CNS): 5.97 µM and 22.5 µM
- TGI (SNB-75 CNS): 21.2 µM and 49 µM

SMILES: COc1ccccc1OC/C(N=Cc1ccncc1)=N/NC(=O)c1ccncc1
- TGI (OVCAR-3 ovarian): > 100 µM
- TGI (RPMI-8226 leukemia): > 100 µM
- TGI (KM12 colon): > 100 µM
- TGI (NCI-H23 lung): > 100 µM
- TGI (HOP-92 NSCLC): > 100 µM
- TGI (K-562 leukemia): > 100 µM
- TGI (SW-620 colon): > 100 µM
- TGI (MDA-N): > 100 µM
- TGI (SK-MEL-28 melanoma): > 100 µM

SMILES: COC(=O)c1cc2c3c(c(C(C)=O)c(OC)c2[nH]1)NCC3
- TGI (OVCAR-3 ovarian): > 50 µM
- TGI (RPMI-8226 leukemia): > 50 µM
- TGI (KM12 colon): > 50 µM
- TGI (NCI-H23 lung): > 50 µM
- TGI (K-562 leukemia): > 50 µM
- TGI (SW-620 colon): > 50 µM
- TGI (MDA-N): > 50 µM
- TGI (SNB-75 CNS): > 50 µM

SMILES: COc1cccc(N2N=C3c4ccccc4-n4c(nc5ccccc54)C3C2N)c1 (configuration not stated)
- TGI (OVCAR-3 ovarian): > 100 µM
- TGI (RPMI-8226 leukemia): > 100 µM
- TGI (KM12 colon): > 100 µM
- TGI (NCI-H23 lung): > 100 µM
- TGI (HOP-92 NSCLC): > 100 µM
- TGI (SW-620 colon): > 100 µM
- TGI (MDA-N): > 100 µM
- TGI (SK-MEL-28 melanoma): > 100 µM
- TGI (SNB-75 CNS): > 100 µM

SMILES: CN(C)CCNC(=O)c1cccc2c(NC(CS)C(=O)O)c3ccccc3nc12 (configuration not stated)
- TGI (OVCAR-3 ovarian): > 100 µM
- TGI (KM12 colon): > 100 µM
- TGI (NCI-H23 lung): 30.4 µM
- TGI (HOP-92 NSCLC): > 100 µM
- TGI (K-562 leukemia): > 100 µM
- TGI (SW-620 colon): > 100 µM
- TGI (MDA-N): 20 µM
- TGI (SK-MEL-28 melanoma): 35.7 µM
- TGI (SNB-75 CNS): 38.5 µM
